Values quoted from earlier work, collected in publication PMC9898036, “VIP152 is a selective CDK9 inhibitor with pre-clinical in vitro and in vivo efficacy in chronic lymphocytic leukemia” (Leukemia, 2022).

System: CLL patients
Settings: cited from earlier work

In the case of CCc1cnn2c(NCc3ccc[n+]([O-])c3)cc(N3CCCC[C@H]3CCO)nc12 [dinaciclib], the “patients having a partial response” value is given as 64%.
